In patent US12018048B2, “Anthelmintic depsipeptide compounds” (BOEHRINGER INGELHEIM ANIMAL HEALTH USA INC., priority 2015, dated 2024) one finds ring closure, yield after HPLC, MIC90 and EC50 data, which are given here for eight compounds.

For series [1] the following is noted: amide bond, 24-membered ring.
For series [2], the system named is Haemonchus contortus L1 larvae. The series is described as follows: Screening method to test activity against Haemonchus contortus (L1 larval development, microtitre plate). The settings on record: 96 h; for MIC90: read-out: median MIC90 value; for pEC50: read-out: median EC50 value.
Method: METHOD A: Screening method to test activity of compounds against Haemonchus contortus.
Twenty L1 Haemonchus contortus larvae were added to wells of a microtitre plate containing a nutrient medium and the test compound in DMSO. An analysis was conducted at 4 days to determine the extent of development of the larvae. Larvae exposed to DMSO alone served as controls.
The EC50 and MIC90 recordings were obtained using different instruments.
Series [3] deals with microfilaria of Dirofilaria immitis. The series is described as follows: Screening method to test activity against microfilaria of Dirofilaria immitis (survival, microtitre plate). Type of series: cell-based. The settings on record: 72 h, read-out: median EC50 value.

pEC50: −log10 of the molar value. In brackets after ≈: the same amount, converted by molar mass. Read-outs that look alike come from different tables or passages of the source.

For `CC(C)C[C@H]1C(=O)O[C@H](C)C(=O)N(C)[C@@H](CC(C)(C)F)C(=O)O[C@H](Cc2ccc(C3CCOCC3)cc2)C(=O)N(C)C2(CC2)C(=O)O[C@H](C)C(=O)N(C)[C@@H](CC(C)(C)F)C(=O)O[C@H](Cc2ccc(C3CCOCC3)cc2)C(=O)N1C`, the ring closure, yield after HPLC in series [1] (from H-MeAcc(1-aminocyclopropanecarboxylic)-dLac-MeLeu(4-F)-dPhLac(4-oxan-4-yl)-MeLeu-dLac-MeLeu(4-F)-dPhLac(4-oxan-4-yl)-OH, BOP-Cl/DIEA, DCM, 0.87 mM) stood at 39%.
Turning to `CN1C(=O)COC(=O)[C@H](CC2CC2)N(C)C(=O)[C@@H](Cc2ccc(C3CCOCC3)cc2)OC(=O)[C@H](CC(C)(C)F)N(C)C(=O)COC(=O)[C@H](CC2CC2)N(C)C(=O)[C@@H](Cc2ccc(C3CCOCC3)cc2)OC(=O)[C@@H]1CC(C)(C)F`, the ring closure, yield after HPLC in series [1] (from H-MeLeu(4-F)-dPhLac(4-oxan-4-yl)-MeAla(3-cyclopropyl)-Glycolic-MeLeu(4-F)-dPhLac(4-oxan-4-yl)-MeAla(3-cyclopropyl)-Glycolic-OH, BOP-Cl/DIEA, DCM, 2.57 mM) was 33%.
As usually defined, the MIC90 is an inhibitory concentration at the 90% level, which refers to growth in some studies and to a panel of isolates in others. The pEC50 is the EC50 on a negative log10 scale, so that one unit is a factor of ten. For `C[C@H]1OC(=O)[C@H](CC2CC2)N(C)C(=O)[C@@H](Cc2ccc(N3CCOCC3)cc2)OC(=O)[C@H](CC2CC2)N(C)C(=O)[C@@H](C)OC(=O)[C@H](CC2CC2)N(C)C(=O)[C@@H](Cc2ccc(N3CCOCC3)cc2)OC(=O)[C@H](CC2CC2)N(C)C1=O` [Compound 6-1A, (3S,6R,9S,12R,15S,18R,21S,24R)-3,9,15,21-tetrakis(cyclopropylmethyl)-4,10,12,16,22,24-hexamethyl-6,18-bis([[4-(morpholin-4-yl)phenyl]methyl])-1,7,13,19-tetraoxa-4,10,16,22-tetraazacyclotetracosan-2,5,8,11,14,17,20,23-octone], the ring closure, yield after HPLC in series [1] (from H-MeAla(cyclopropyl)-dPhLac(4-morpholino)-MeAla(cyclopropyl)-dLac-MeAla(cyclopropyl)-dPhLac(4-morpholino)-MeAla(cyclopropyl)-dLac-OH, BOP-Cl/DIEA, DCM, 1.5 mM) is 13%. The MIC90 in series [2] was 1 to 10 µM (≈ 1.11 to 11.1 µg/mL). Also, in series [3], the pEC50 was 6.00 to 7.00.
The compound `CC(C)C[C@H]1C(=O)O[C@H](C)C(=O)N(C)[C@@H](CC2CC2)C(=O)O[C@H](Cc2ccc(N3CCOCC3)cc2)C(=O)N(C)[C@@H](CC(C)C)C(=O)O[C@H](C)C(=O)N(C)[C@@H](CC2CC2)C(=O)O[C@H](Cc2ccc(N3CCOCC3)cc2)C(=O)N1C` [Compound 6-7A, (3S,6R,9S,12R,15S,18R,21S,24R)-3,15-bis(cyclopropylmethyl)-4,6,10,16,18,22-hexamethyl-9,21-bis(2-methylpropyl)-12,24-bis([[4-(morpholin-4-yl)phenyl]methyl])-1,7,13,19-tetraoxa-4,10,16,22-tetraazacyclotetracosan-2,5,8,11,14,17,20,23-octone] had a ring closure, yield after HPLC in series [1] (from H-MeAla(cyclopropyl)-dPhLac(4-morpholino)-MeLeu-dLac-MeAla(cyclopropyl)-dPhLac(4-morpholino)-MeLeu-dLac-OH, BOP-Cl/DIEA, DCM, 3.2 mM) of 8%. In addition, the MIC90 in series [2] lay within 0.1 to 1 µM (≈ 0.112 to 1.12 µg/mL). In series [3], the negative logarithm of the EC50 (pEC50) was 6.00 to 7.00.
`C[C@H]1OC(=O)[C@H](CC2CC2)N(C)C(=O)[C@@H](Cc2ccc(C3CCOCC3)cc2)OC(=O)[C@H](CC(C)(C)F)N(C)C(=O)[C@@H](C)OC(=O)[C@H](CC2CC2)N(C)C(=O)[C@@H](Cc2ccc(C3CCOCC3)cc2)OC(=O)[C@H](CC(C)(C)F)N(C)C1=O` [Compound 7-34A, (3S,6R,9S,12R,15S,18R,21S,24R)-3,15-bis(cyclopropylmethyl)-9,21-bis(2-fluoro-2-methylpropyl)-4,-10,12,16,22,24-hexamethyl-6,18-bis([[4-(oxan-4-yl)phenyl]methyl])-1,7,13,19-tetraoxa-4,10,16,22-te-traazacyclotetracosan-2,5,8,11,14,17,20,23-octone] yielded a ring closure, yield after HPLC in series [1] (from H-MeLeu(4-F)-dPhLac(4-oxan-4-yl)-MeAla(3-cyclopropyl)-dLac-MeLeu(4-F)-dPhLac(4-oxan-4-yl)-MeAla(3-cyclopropyl)-dLac-OH, BOP-Cl/DIEA, DCM, 2.75 mM) of 14%. Also, the pEC50 in series [2] and in series [3] was > 7.00 each time. In series [2], the MIC90 was < 0.1 µM.
On to `CC(C)C[C@H]1C(=O)O[C@H](C)C(=O)N(C)[C@@H](CC2CC2)C(=O)O[C@H](Cc2ccc(N3CCOCC3)nc2)C(=O)N(C)[C@@H](CC(C)C)C(=O)O[C@H](C)C(=O)N(C)[C@@H](CC2CC2)C(=O)O[C@H](Cc2ccc(N3CCOCC3)nc2)C(=O)N1C` [Compound 9-7A, (3S,6R,9S,12R,15S,18R,21S,24R)-3,15-bis(cyclopropylmethyl)-4,6,10,16,18,22-hexamethyl-9,21-bis(2-methylpropyl)-12,24-bis([[6-(morpholin-4-yl)pyridin-3-yl]methyl])-1,7,13,19-tetraoxa-4,10,16,22-tetraazacyclotetracosan-2,5,8,11,14,17,20,23-octone], for which the ring closure, yield after HPLC in series [1] (from H-MeAla(cyclopropyl)-dLac(3-[6-(morpholin-4-yl)pyridin-3-yl])-MeLeu-dLac-MeAla(cyclopropyl)-dLac(3-[6-(morpholin-4-yl)pyridin-3-yl])-MeLeu-dLac-OH?, BOP-Cl/DIEA, DCM, 4.2 mM) came to 12%. Further, the negative-log EC50 (pEC50) in series [3] is 5.00 to 6.00.
Turning to `C[C@H]1OC(=O)C2(CC2)N(C)C(=O)[C@@H](Cc2ccc(C3CCOCC3)cc2)OC(=O)[C@H](CC(C)(C)F)N(C)C(=O)[C@@H](C)OC(=O)C2(CC2)N(C)C(=O)[C@@H](Cc2ccc(C3CCOCC3)cc2)OC(=O)[C@H](CC(C)(C)F)N(C)C1=O` [Compound 969-34A, (6R,9S,12R,20R,23S,26R)-9,23-bis(2-fluoro-2-methylpropyl)-4,10,12,18,24,26-hexamethyl-6,20-bis([[4-(oxan-4-yl)phenyl]methyl])-7,13,21,27-tetraoxa-4,10,18,24-tetraazadispiro[2.11.2^[15].11^[3]]octacosan-5,8,11,14,19,22,25,28-octone], in series [1] (from H-MeAcc(1-aminocyclopropanecarboxylic)-dLac-MeLeu(4-F)-dPhLac(4-oxan-4-yl)-MeAcc(1-aminocyclopropanecarboxylic)-dLac-MeLeu(4-F)-dPhLac(4-oxan-4-yl)-OH, BOP-Cl/DIEA, DCM, 3.2 mM), the ring closure, yield after HPLC is 29%. The pEC50 in series [2] and in series [3] was 5.00 to 6.00 in each case.
Turning to “(3S,6R,9S,12R,15S,18R,21S,24R)-3,15-bis(cyclopropylmethyl)-9,21-bis(2-fluoro-2-methylpropyl)-4,10,12,16,22,24-hexamethyl-6,18-bis([[4-(morpholin-4-yl)phenyl]methyl])-1,7,13,19-tetraoxa-4,10,16,22-tetraazacyclotetracosan-2,5,8,11,14,17,20,23-octone”, the ring closure, yield after HPLC in series [1] (DIEA) amounted to 24%.
